Assay results: US20240117303A1, “METHODS AND COMPOSITIONS FOR GENERATING HUMAN MIDBRAIN DOPAMINERGIC NEURONS FROM NEURAL PROGENITOR CELLS” (Trailhead Biosystems Inc., priority 2022, published 2024)
Where “and” joins values, the source holds several entries; their conditions need not be identical. Equal entries are not always repeated. Entries after “also recorded” stand apart in the source; their conditions may differ.

Key:
[1] = tested on: stage 2 neural progenitors; assay: HD-DoE another 12-factor model for stage 3 recipe (FIG. 24, 25, 30); assay type: cell-based, human; settings: for impact on expression of SOX6 / impact on expression of MSX1: dynamic profile, 12 effectors
Protocol: In another 12-factor model, additional factors including Activin A, Takinib (TAK inhibitor), FGF8b, AZD3147 (mTOR antagonist), MHY1485 (mTOR agonist), and Yhhu-3792 (Notch agonist) were tested. Some of the factors from previous model (BMP7, A 8301, LDN193189, PD0325901, MK2206 and DBZ) were also included.
(§1) To assess the impact of elimination of each validated factor identified in Example 5 for the stage 3 and stage 4 recipes, we used dynamic profile analysis and compared the expression level of genes of interest in absence of each finalized factor while others are present.
In another model, to determine the combinatorial effect of AZD3147 and DBZ on gene profile of cells in presence of other factors of final recipe, the expression levels of SOX6 and MSX1 were compared in the absence of each of the factors in the presence of PD0325901 and BMP7. These two compounds were the only final compounds that were included in inputs of this experimental model The results are shown in FIG. 30A and FIG. 30B. […] When DBZ was removed, the level of SOX6 and MSX1 both decreased to 140 and 35, respectively.

[2] = tested on: stage 2 neural progenitors; assay: HD-DoE 12-factor model for stage 3 recipe (FIG. 19-23, 29); assay type: cell-based, human
Description: To develop the neuronal differentiation recipes, the impact of various agonist and antagonists (effectors) on maturation of MB neural progenitors was investigated using the HD-DoE method described in Example 1. These effectors were chosen based on available literature on developmental biology, differentiation of stem cells as well as mouse and human single cell RNA-seq data from midbrain neurons at the time.
To engineer the recipe of stage 3 of differentiation, cells were first cultured in the stage 1 and stage 2 media as described herein, then they were treated with combinations of 8 or 12 factors for 3 days and the gene expression of cells in each condition was modeled. To guide the cells towards a subtype of midbrain dopaminergic neurons that reside in Substantia Nigra pars compacta (SNc) region of the brain, neural progenitors need to be SOX6^+ (Pereira et al. (2021) Cell Rep. 37:109975 Oosterveen et al. (2021) Stem Cell Reports 16:2718-2735 Poulin et al. (2020) Trends Neurosci. 43:155-169). CORIN, NGN2 and MSX1 are other markers involved in neurogenesis of dopaminergic neurons originating from floorplate region of developing midbrain (Wang et al. (2020) Cells 9:1489; Samata et al. (2016) Nat Commun. 7:13097; Ono et al. (2007) Development 134:3213-3225; Prakash et al. (2006) J. Physiol. 575:403410).
Therefore, we focused on maximizing expression of SOX6, CORIN, NGN2 and MSX1 in modeling experiments. One of the 12-factor models, the results of which are shown in FIG. 19, including LDN193189, AGN193109, BMP7, TTNPB, PD0325901, A8301, MHY1485, CHIR99021, XAV939, SANT-1, Purmorphamine and MK2206, provided a combination set that could maximize expression level of CORIN to more than 2000.
as §1
In the stage 3 recipe, each of the finalized factors were removed in their respective models while other factors were present and the expression level of genes of interest was assessed compared to presence of all factors. When AGN193109 was excluded, level of all CORIN, KCNJ6, MSX1 and SOX6 decreased from 900 to 450, 50 to 35, 140 to 110 and 105 to 60, respectively. […] When PD0325901 was removed, expression levels of CORIN and KCNJ6 increased to 1200 and 70 while levels of MSX1 and SOX6 decreased to 105 and 20. In the absence of CHIR99021, the expression level of CORIN was again increased to 1200 while the level of KCNJ6 and MSX1 dropped to 50 and 115. […] Therefore, it was decided to include this compound in the final recipe. […] Therefore, CHIR99021 was also included in the final recipe.

[3] = tested on: human pluripotent stem cells; assay: HD-DoE 13-factor experiment for stage 1 recipe, gene expression modeled after 3-day treatment; dynamic profile and factor criticality analysis; assay type: cell-based
Description: This example utilizes a method of High-Dimensional Design of Experiments (HD-DoE), as previously described in Bukys et al. (2020) Iscience 23:101346. The method employs computerized design geometries to simultaneously test multiple process inputs and offers mathematical modeling of a deep effector/response space. The method allows for finding combinatorial signaling inputs that control a complex process, such as during cell differentiation. It allows testing of multiple plausible critical process parameters, as such parameters impact output responses, such as gene expression. Because gene expression provides hallmark features of the phenotype of, for example, a human cell, the method can be applied to identify, and understand, which signaling pathways control cell fate. In the current example, the HD-DOE method was applied with the intent to find conditions for induction of midbrain neural progenitor-expressed genes, directly from the pluripotent stem cell state.
To develop the recipe for each stage, the impact of agonists and antagonists of multiple signaling pathways (referred to herein as “effectors”) on the expression of two sets of 53 pre-selected genes after a 3-day treatment was tested and modeled. These effectors are small molecules or proteins that are commonly used during stepwise differentiation of stem cells to specific fates. The choice of the effectors to test was based on current literature on neural induction in the midbrain region of the developing brain and differentiation of stem cells to neural progenitors.
To test the effectors, experiments with at least 8 factors were designed that can assess the response of cells to 48 or more different combinations of effectors in a range of concentrations. To analyze the models, we focused on expression of genes expressed in the midbrain region, including OTX2, DMBX1, FOXA2, LMX1A, and on the absence of GBX2, which is a hindbrain marker. The impact of each effector on gene expression level is defined by a parameter called factor contribution that is calculated for each effector during the modeling.
To identify the recipe of stage 1 of differentiation, cells were treated with various effectors for 3 days and the gene expression of cells was modeled. […] This model consisted of 13 factors including LDN193189, PD173074, BLU9931, Purmorphamine, SC79, MK2206, ZM336372, PD0325901, CHIR99021, XAV939, UCLA-gp130, Tofacitinib and GO 6983.
(§2) To assess the impact of elimination of each validated factor, we used dynamic profile analysis and compared the expression level of genes of interest in absence of each finalized factor while others are present.
In the stage 1 recipe, each of the five finalized factors were removed while the other four factors were present and the expression levels of OTX2, DMBX1, FOXA2 and LMX1A was assessed compared to the levels in the presence of all five factors (FIG. 11A-B). […] Expression level of DMBX1 increased in absence of LDN193189, however values of OTX2, FOXA2 and LMX1A decreased.

[4] = tested on: stage 1 neural stem cells; assay: HD-DoE 12-factor experiment for stage 2 recipe (second model, FIG. 8-10, 13); assay type: cell-based, human; settings: dynamic profile, 12 effectors
Protocol: To test additional factors like FGF8 that is routinely used in midbrain differentiation protocols, we ran another 12-factor experiment consisting of LDN193189, BMP7, A 83-01, Activin A, Takinib, PD0325901, MK2206, FGF8b, AZD3147, MHY1485, GSI-XX and Yhhu 3792. Similar to the previous experiment, hiPSCs were treated with stage 1 media for 3 days and then treated with 96 conditions of combinations of the factors for an additional 3 days. When this model was optimized for maximum expression of FOXA2, BMP7 with factor contribution of 13.7 and MK2206 with 14.2 had the most impact on its expression followed by AZD 3147 with factor contribution of 10.9.
as §2
In the stage 2 recipe, each of the six finalized factors were removed while the other five factors were present and the expression levels of FOXA2, LMX1A and GBX2 were assessed, compared to the levels in the presence of all factors. According to the first experiment model, the absence of TTNPB lead to a rise of GBX2 expression, while the value of FOXA2 and LMX1A reduced drastically from 10,000 to 0 and 30,000 to 15,000, respectively. The absence of A 83-01 reduced the expression of FOXA2 from 10,000 to 7000, however, as expected, the value of LMX1A increased from 30,000 to 40,000. […] According to the second experiment model, the absence of BMP7 and MK2206 both reduced the level of FOXA2 while increasing the value of LMX1A, with BMP7 as the main effector that led to 0 expression of FOXA2.

stage 3 immature neurons = assay: HD-DoE 8-factor experiment for stage 4 recipe (FIG. 27, 28, 31); assay type: cell-based, human; settings: for impact on expression of NR4A2: 8-factor model / dynamic profile; for expression level of PITX3 in absence of the factor / expression level of NR4A2 in absence of the factor: stage 4 recipe, other factors present; for expression level of PITX3 in absence of the factor: 40 with all factors; for expression level of NR4A2 in absence of the factor: 400 with all factors
Protocol: To further differentiate the cells to a mature neuronal identity, additional HD-DoE experiments were performed on the cells that were cultured in stage 1, stage 2 and stage 3 differentiation media. After 4 days, gene expression of cells in different combinatorial conditions were investigated. At this time, we focused on maximal expression of more mature dopaminergic genes such as NR4A2, PITX3 and TH (Tiklová et al. (2020) Nat Commun. 11:2434; Fiorenzano et al. (2021) Nat Commun., 12:7302). In one model, cells were treated with a combinatorial matrix with eight inputs including CHIR99021, BDNF, GDNF, Rosiglitazone, GW7647, DBZ and heparin.
as §1
In the stage 4 recipe, each of six finalized factors were excluded while other factors were present and the expression levels of NR4A2 and PITX3 were assessed compared to the presence of all factors.

Row | Molecule | impact on expression of SOX6 [1] | impact on expression of FOXA2 [4] | impact on expression of LMX1A [4] | impact on expression of MSX1 [1] | impact on expression of NR4A2 (stage 3 immature neurons) | expression level of PITX3 in absence of the factor (stage 3 immature neurons) | expression level of NR4A2 in absence of the factor (stage 3 immature neurons) | further results
1 | O=C(NOC[C@H](O)CO)c1ccc(F)c(F)c1Nc1ccc(I)cc1F [PD0325901] | positive impact | – | – | – | – | – | – | level of MSX1 in absence of the factor ([1]; AZD3147, DBZ, PD0325901 and BMP7 set, 45 with all factors): 40; level of SOX6 in absence of the factor ([1]; AZD3147, DBZ, PD0325901 and BMP7 set, 185 with all factors): 165; factor contribution ([2]; model optimized for maximum expression of KCNJ6, positive regulators): 10.9; factor contribution ([2]; model optimized for maximum expression of SOX6, positive impact): 13.5; expression level of KCNJ6 in absence of the factor ([2]; stage 3 recipe, other factors present, 50 with all factors): 70; expression level of SOX6 in absence of the factor ([2]; stage 3 recipe, other factors present, 105 with all factors): 20; expression level of MSX1 in absence of the factor ([2]; stage 3 recipe, other factors present, 140 with all factors): 105; expression level of CORIN in absence of the factor ([2]; stage 3 recipe, other factors present, 900 with all factors): 1200; impact on expression of OTX2 ([3]; dynamic profile, 13 effectors): positive impact; factor contribution ([3]; model optimized for maximum expression of OTX2, positive impact, 3-day treatment): 18.1; expression level of LMX1A in absence of the factor ([3]; stage 1 recipe, other four factors present, 300 with all five factors): 500; expression level of FOXA2 in absence of the factor ([3]; stage 1 recipe, other four factors present, 600 with all five factors): 700; expression level of DMBX1 in absence of the factor ([3]; stage 1 recipe, other four factors present, 3000 with all five factors): 900
2 | CCCn1/c(=N/C(=O)c2cccc(C(N)=O)c2)[nH]c2ccccc21 [Takinib] | positive effect | did not make a meaningful positive change | did not make a meaningful positive change | negatively regulate; also recorded: negative impact | – | – | – | –
3 | BDNF: brain-derived neurotrophic factor, BDNF agonist (protein, UniProt P23560 19-247, looked up) Neurotrophic factor BDNF …: APMKEANIRGQGGLAYPGVRTHGTLESVNGPKAGSRGLTSLADTFEHVIEELLDEDQKVRPNEENNKDADLYTSRVMLSSQVPLEPPLLFLLEEYKNYLDAANMSMRVRRHSDPARRGELSVCDSISEWVTAADKKTAVDMSGGTVTVLEKVPVSKGQLKQYFYETKCNPMGYTKEGCRGIDKRHWNSQCRTTQSYVRALTMDSKKRIGWRFIRIDTSCVCTLTIKRGR | – | – | – | – | positive impact | 10 | 100 | impact on expression level of PITX3 (stage 3 immature neurons; dynamic profile, 8 effectors): positive impact; factor contribution (stage 3 immature neurons; model maximized for NR4A2, positive regulatory impact, after 4 days): 17 and 17.1
4 | GDNF: glial cell line-derived neurotrophic factor, GDNF agonist (protein, UniProt P39905 78-211, looked up) Glial cell line-derived …: SPDKQMAVLPRRERNRQAAAANPENSRGKGRRGQRGKNRGCVLTAIHLNVTDLGLGYETKEELIFRYCSGSCDAAETTYDKILKNLSRNRRLVSDKVGQACCRPIAFDDDLSFLDDNLVYHILRKHSAKRCGCI | – | – | – | – | positive regulatory impact | 25 | 300 | –
5 | Activin A: effector tested in the HD-DoE experiments (protein, UniProt P08476 311-426, looked up, Inhibin beta A chain) Inhibin beta A chain: GLECDGKVNICCKKQFFVSFKDIGWNDWIIAPSGYHANYCEGECPSHIAGTSGSSLSFHSTVINHYRMRGHSPFANLKSCCVPTKLRPMSMLYYDDGQNIIKKDIQNMIVEECGCS | positive effect | did not make a meaningful positive change | did not make a meaningful positive change | negatively regulate; also recorded: negative impact | – | – | – | –
